Starred links: 1 amine or outer side, 2 acyl side, 3 side chain; linkers in the order of their positions; H or OH if unused. Positions of bridges follow the written chain, without caps; N, C: chain ends. Non-standard residues stand in square brackets, D forms with d. Residues, ends and D or L forms follow the SMILES beside them. Groups on a side chain read outwards from the residue. ξ: configuration not given here. *: point of attachment. X6 = CSCC[C@H](NC(=O)c1ccc(CNC(=O)CN2CCN(CC(=O)O)CCN(CC(=O)O)CCN(CC(=O)O)CC2)cc1)C(=O)N[C@H](C(=O)N[C@@H](CCCCN*)C(=O)O)C(C)C; Ala(piperidin-4-yl) = O=C([C@H](CC1CCN([*:3])CC1)N[*:1])[*:2]; DOTA = O=C(O)CN1CCN(CC(=O)O)CCN(CC(=O)*)CCN(CC(=O)O)CC1; Phe(4-NHCONH2) = NC(=O)Nc1ccc(C[C@H](N)C(=O)O)cc1; Trp(5-F) = N[C@@H](Cc1c[nH]c2ccc(F)cc12)C(=O)O; X1 = C[C@@H](c1ccccc1)[C@H](N[*:1])C(=O)[*:2]; 1Nal = N[C@@H](Cc1cccc2ccccc12)C(=O)O; 2Nal = N[C@@H](Cc1ccc2ccccc2c1)C(=O)O; Ala(4-THP) = N[C@@H](CC1CCOCC1)C(=O)O; Val(3-OH) = CC(C)(O)[C@H](N)C(=O)O; 4Pal = N[C@@H](Cc1ccncc1)C(=O)O; Cha = N[C@@H](CC1CCCCC1)C(=O)O; pGlu = O=C1CC[C@@H](C(=O)O)N1; PEG4 = NCCOCCOCCOCCOCCC(=O)O; Tle = CC(C)(C)[C@H](N)C(=O)O; hLeu = CC(C)CC[C@H](N)C(=O)O; NMeS = CN[C@@H](CO)C(=O)O; Nle = CCCC[C@H](N)C(=O)O; ξV = CC(C)C(N)C(=O)O
Target: T1, human 4lg B7-H3 (Homo sapiens, UniProt Q5ZPR3)
T1 sequence (Q5ZPR3 29-534): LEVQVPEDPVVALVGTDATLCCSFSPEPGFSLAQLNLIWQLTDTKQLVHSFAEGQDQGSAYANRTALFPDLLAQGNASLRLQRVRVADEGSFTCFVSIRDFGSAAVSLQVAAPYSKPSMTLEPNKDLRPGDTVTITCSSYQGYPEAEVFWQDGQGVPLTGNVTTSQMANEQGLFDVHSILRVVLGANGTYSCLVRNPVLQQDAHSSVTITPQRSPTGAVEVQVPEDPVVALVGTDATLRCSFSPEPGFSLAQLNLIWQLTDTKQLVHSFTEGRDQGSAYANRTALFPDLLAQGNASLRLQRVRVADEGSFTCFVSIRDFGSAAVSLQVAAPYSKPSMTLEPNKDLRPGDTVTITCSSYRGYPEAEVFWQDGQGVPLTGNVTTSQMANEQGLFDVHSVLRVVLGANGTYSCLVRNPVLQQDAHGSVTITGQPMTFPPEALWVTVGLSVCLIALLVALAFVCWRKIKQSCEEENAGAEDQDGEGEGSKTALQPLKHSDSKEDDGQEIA
Test: Affinity determination by surface plasmon resonance (SPR) to 4Ig B7-H3
Conditions: 4Ig B7-H3

[1] = SPR KD—37° C., 37° C. flow cell temperature
[2] = SPR KD—25° C., 25° C. flow cell temperature

CSCC[C@H](NC(=O)c1ccc(CNC(=O)CN2CCN(CC(=O)O)CCN(CC(=O)O)CCN(CC(=O)O)CC2)cc1)C(=O)N[C@H](C(=O)N[C@@H](CCCCNC(=O)[C@@H](NC(=O)[C@H](Cc1ccccc1)NC(=O)[C@H](Cc1c[nH]c2ccc(F)cc12)NC(=O)[C@@H]1CSSC[C@H](NC(=O)[C@H](Cc2ccc(O)cc2)NC(=O)[C@H](CCC(C)C)NC(C)=O)C(=O)N[C@@H](C(C)(C)C)C(=O)NCC(=O)N[C@@H](CC2CCNCC2)C(=O)N[C@@H](CC2CCOCC2)C(=O)N[C@@H](CC(=O)O)C(=O)N[C@@H](C(C)C)C(=O)N[C@@H](Cc2ccc(O)cc2)C(=O)N1)C(C)(C)O)C(=O)O)C(C)C [Cpd #482, Ac-hLeu-Y-C-Tbg-G-PipAla-ThpA-D-V-Y-C-5FW-F-hydroxyVal-εLys(Val-Met-AmBz-DOTA)-COOH] (Ac-[hLeu]YC[Tle]G[Ala(piperidin-4-yl)][Ala(4-THP)]DVYC[Trp(5-F)]F[Val(3-OH)]-X6; disulfide 3-11)
Kd [1]: 1 to 10 nM

CCCC[C@H](NC(C)=O)C(=O)N[C@@H](Cc1ccc(O)cc1)C(=O)N[C@H]1CSSC[C@@H](C(=O)N[C@@H](Cc2ccc3ccccc3c2)C(=O)N[C@@H](Cc2ccccc2)C(=O)N[C@H](C(=O)N[C@H](CCCCNC(=O)CN2CCN(CC(=O)O)CCN(CC(=O)O)CCN(CC(=O)O)CC2)C(N)=O)[C@@H](C)O)NC(=O)[C@H](Cc2ccc(O)cc2)NC(=O)C(C(C)C)NC(=O)[C@H](CC(=O)O)NC(=O)[C@H](Cc2ccc(O)cc2)NC(=O)[C@H](CCCCN)NC(=O)CNC(=O)[C@H](C(C)C)NC1=O (stereo partly drawn) [compound 129, Ac-Nle-Y-C-V-G-K-Y-D-V-Y-C-2Nal-F-Thr-dLys(DOTA)-CONH2] (Ac-[Nle]YCVGKYD[ξV]YC[2Nal]FT[dK](DOTA)-NH2; disulfide 3-11)
Kd [2]: 100 to 300 nM

COc1ccc(C[C@H](NC(=O)[C@H](CCC(C)C)NC(C)=O)C(=O)N[C@H]2CSSC[C@@H](C(=O)N[C@@H](Cc3c[nH]c4ccc(F)cc34)C(=O)N[C@@H](Cc3ccccc3)C(=O)N[C@H](C(=O)N[C@H](CCCCNC(=O)CN3CCN(CC(=O)O)CCN(CC(=O)O)CCN(CC(=O)O)CC3)C(N)=O)[C@@H](C)O)NC(=O)[C@H](Cc3ccc(O)cc3)NC(=O)[C@H](C(C)C)NC(=O)[C@H](CC(=O)O)NC(=O)[C@H](Cc3ccc(O)cc3)NC(=O)[C@H](CCCCN)NC(=O)CNC(=O)[C@H](C(C)C)NC2=O)cc1 [compound 193, Ac-hLeu-OMeTyr-C-V-G-K-Y-D-V-Y-C-5FW-F-Thr-dLys(DOTA)-CONH2] (Ac-[hLeu]Y(Me)CVGKYDVYC[Trp(5-F)]FT[dK](DOTA)-NH2; disulfide 3-11)
Kd [2]: 10 to 100 nM

CCCC[C@H](NC(C)=O)C(=O)N[C@@H](Cc1ccc(O)cc1)C(=O)N[C@H]1CSSC[C@@H](C(=O)N[C@@H](Cc2cccc3ccccc23)C(=O)N[C@@H](Cc2ccccc2)C(=O)N[C@H](C(=O)N[C@H](CCCCNC(=O)CN2CCN(CC(=O)O)CCN(CC(=O)O)CCN(CC(=O)O)CC2)C(N)=O)[C@@H](C)O)NC(=O)[C@H](Cc2ccc(O)cc2)NC(=O)C(C(C)C)NC(=O)[C@H](CC(=O)O)NC(=O)[C@H](Cc2ccc(O)cc2)NC(=O)[C@H](CCCCN)NC(=O)CNC(=O)[C@H](C(C)C)NC1=O (stereo partly drawn) [compound 128, Ac-Nle-Y-C-V-G-K-Y-D-V-Y-C-1Nal-F-Thr-dLys(DOTA)-CONH2] (Ac-[Nle]YCVGKYD[ξV]YC[1Nal]FT[dK](DOTA)-NH2; disulfide 3-11)
Kd [2]: 1 to 10 nM

CCCC[C@H](NC(C)=O)C(=O)N[C@@H](Cc1ccc(O)cc1)C(=O)N[C@H]1CSSC[C@@H](C(=O)N[C@@H](Cc2c[nH]c3ccccc23)C(=O)N[C@@H](Cc2ccccc2)C(=O)N[C@H](C(=O)N[C@H](CCCCNC(=O)CN2CCN(CC(=O)O)CCN(CC(=O)O)CCN(CC(=O)O)CC2)C(=O)O)[C@@H](C)O)NC(=O)[C@H](Cc2ccc(O)cc2)NC(=O)[C@H](C(C)C)NC(=O)[C@H](CC(=O)O)NC(=O)[C@H](Cc2ccc(O)cc2)NC(=O)[C@H](CCCCN)NC(=O)CNC(=O)[C@H](C(C)C)NC1=O [compound 28, Ac-Nle-Y-C-V-G-K-Y-D-V-Y-C-W-F-Thr-dLys(DOTA)-COOH] (Ac-[Nle]YCVGKYDVYCWFT[dK](DOTA)-OH; disulfide 3-11)
Kd [2]: 1 to 10 nM
Kd [1]: 1 to 10 nM

CC(=O)N[C@@H](CCC(C)C)C(=O)N[C@@H](Cc1ccc(O)cc1)C(=O)N[C@H]1CSSC[C@@H](C(=O)N[C@@H](Cc2cccc3ccccc23)C(=O)N[C@@H](Cc2ccccc2)C(=O)N(C)[C@@H](CO)C(=O)N[C@H](CCCCNC(=O)CN2CCN(CC(=O)O)CCN(CC(=O)O)CCN(CC(=O)O)CC2)C(N)=O)NC(=O)[C@H](CC2CCCCC2)NC(=O)[C@H](C(C)C)NC(=O)[C@H](CC(=O)O)NC(=O)[C@H](Cc2ccncc2)NC(=O)[C@H](CCCCN)NC(=O)CNC(=O)[C@H](C(C)(C)C)NC1=O [compound 220, Ac-hLeu-Y-C-Tbg-G-K-4PyA-D-V-Cha-C-1Nal-F-NMeSer-dLys(DOTA)-CONH2] (Ac-[hLeu]YC[Tle]GK[4Pal]DV[Cha]C[1Nal]F[NMeS][dK](DOTA)-NH2; disulfide 3-11)
Kd [2]: 10 to 100 nM

CCCC[C@H](NC(C)=O)C(=O)N[C@@H](Cc1ccc(O)cc1)C(=O)N[C@H]1CSSC[C@@H](C(=O)N[C@@H](Cc2c[nH]c3ccccc23)C(=O)N[C@@H](Cc2ccccc2)C(=O)N[C@H](C(=O)N[C@H](CCCCNC(=O)CN2CCN(CC(=O)O)CCN(CC(=O)O)CCN(CC(=O)O)CC2)C(N)=O)[C@@H](C)O)NC(=O)[C@H](Cc2ccc(O)cc2)NC(=O)[C@H](C(C)C)NC(=O)[C@H](CO)NC(=O)[C@H](Cc2ccc(O)cc2)NC(=O)[C@H](CCCCN)NC(=O)CNC(=O)[C@H](C(C)C)NC1=O [compound 81, Ac-Nle-Y-C-V-G-K-Y-S-V-Y-C-W-F-Thr-dLys(DOTA)-CONH2] (Ac-[Nle]YCVGKYSVYCWFT[dK](DOTA)-NH2; disulfide 3-11)
Kd [2]: 100 to 300 nM

CC(C)CC[C@H](NC(=O)[C@@H]1CCC(=O)N1)C(=O)N[C@@H](Cc1ccc(O)cc1)C(=O)N[C@H]1CSSC[C@@H](C(=O)N[C@@H](Cc2c[nH]c3ccc(F)cc23)C(=O)N[C@H](C(=O)N[C@H](C(=O)N[C@H](CCCCNC(=O)CN2CCN(CC(=O)O)CCN(CC(=O)O)CCN(CC(=O)O)CC2)C(=O)O)C(C)(C)O)[C@@H](C)c2ccccc2)NC(=O)[C@H](Cc2ccc(NC(N)=O)cc2)NC(=O)[C@H](C(C)C)NC(=O)[C@H](CC(=O)O)NC(=O)[C@H](CC2CCOCC2)NC(=O)[C@H](CC2CCNCC2)NC(=O)CNC(=O)[C@H](C(C)(C)C)NC1=O [compound 504, Pyroglutamate-hLeu-Y-C-Tbg-G-PipAla-ThpA-D-V-Aph(Cbm)-C-5FW-[(2S, 3S)beta-Me-Phe]-hydroxyVal-dLys(DOTA)-COOH] ([pGlu][hLeu]YC[Tle]G[Ala(piperidin-4-yl)][Ala(4-THP)]DV[Phe(4-NHCONH2)]C[Trp(5-F)][X1][Val(3-OH)][dK](DOTA)-OH; disulfide 4-12)
Kd [1]: < 1 nM

CC(=O)N[C@@H](CCC(C)C)C(=O)N[C@@H](Cc1ccc(O)cc1)C(=O)N[C@H]1CSSC[C@@H](C(=O)N[C@@H](Cc2c[nH]c3ccc(F)cc23)C(=O)N[C@@H](Cc2ccccc2)C(=O)N2CCC[C@H]2C(=O)N[C@H](CCCCNC(=O)CN2CCN(CC(=O)O)CCN(CC(=O)O)CCN(CC(=O)O)CC2)C(N)=O)NC(=O)[C@H](Cc2ccc(O)cc2)NC(=O)[C@H](C(C)C)NC(=O)[C@H](CC(=O)O)NC(=O)[C@H](CC2CCOCC2)NC(=O)[C@H](CCCCN)NC(=O)CNC(=O)[C@H](C(C)C)NC1=O [compound 271, Ac-hLeu-Y-C-V-G-K-ThpA-D-V-Y-C-5FW-F-Pro-dLys(DOTA)-CONH2] (Ac-[hLeu]YCVGK[Ala(4-THP)]DVYC[Trp(5-F)]FP[dK](DOTA)-NH2; disulfide 3-11)
Kd [2]: < 1 nM

CC(=O)N[C@@H](CCC(C)C)C(=O)N[C@H](C(=O)N[C@H]1CSSC[C@@H](C(=O)N[C@@H](Cc2c[nH]c3ccc(F)cc23)C(=O)N[C@@H](Cc2ccccc2)C(=O)N(C)[C@@H](CO)C(=O)N[C@H](CCCCNC(=O)CN2CCN(CC(=O)O)CCN(CC(=O)O)CCN(CC(=O)O)CC2)C(N)=O)NC(=O)[C@H](Cc2ccc(O)cc2)NC(=O)[C@H](C(C)C)NC(=O)[C@H](CC(=O)O)NC(=O)[C@H](Cc2ccc(O)cc2)NC(=O)[C@H](CC2CCNCC2)NC(=O)CNC(=O)[C@H](C(C)C)NC1=O)C(C)(C)O [compound 211, Ac-hLeu-hyVal-C-V-G-PipAla-Y-D-V-Y-C-5FW-F-NMeSer-dLys(DOTA)-CONH2] (Ac-[hLeu][Val(3-OH)]CVG[Ala(piperidin-4-yl)]YDVYC[Trp(5-F)]F[NMeS][dK](DOTA)-NH2; disulfide 3-11)
Kd [2]: 10 to 100 nM

CC(=O)N[C@@H](CCC(C)C)C(=O)N[C@@H](Cc1ccc(O)cc1)C(=O)N[C@H]1CSSC[C@@H](C(=O)N[C@@H](Cc2c[nH]c3ccc(F)cc23)C(=O)N[C@H](C(=O)N[C@H](C(=O)N[C@H](CCCCNC(=O)CCOCCOCCOCCOCCNC(=O)CN2CCN(CC(=O)O)CCN(CC(=O)O)CCN(CC(=O)O)CC2)C(=O)O)C(C)(C)O)[C@@H](C)c2ccccc2)NC(=O)[C@H](Cc2ccc(NC(N)=O)cc2)NC(=O)[C@H](C(C)C)NC(=O)[C@H](CC(=O)O)NC(=O)[C@H](CC2CCOCC2)NC(=O)[C@H](CC2CCNCC2)NC(=O)CNC(=O)[C@H](C(C)(C)C)NC1=O [compound 500, Ac-hLeu-Y-C-Tbg-G-PipAla-ThpA-D-V-Aph(Cbm)-C-5FW-[(2S, 3S)beta-Me-Phe]-hydroxyVal-dLys(PEG4-DOTA)-COOH] (Ac-[hLeu]YC[Tle]G[Ala(piperidin-4-yl)][Ala(4-THP)]DV[Phe(4-NHCONH2)]C[Trp(5-F)][X1][Val(3-OH)][dK]([PEG4-DOTA])-OH; disulfide 3-11)
Kd [1]: < 1 nM
